The values that follow come from paper PMC8491162, “Targeting the JAK/STAT Pathway: A Combined Ligand- and Target-Based Approach” (Journal of Chemical Information and Modeling, 2021).

Counter-ions that a name gives are not always drawn.

T1 sequence (O60674 whole entry): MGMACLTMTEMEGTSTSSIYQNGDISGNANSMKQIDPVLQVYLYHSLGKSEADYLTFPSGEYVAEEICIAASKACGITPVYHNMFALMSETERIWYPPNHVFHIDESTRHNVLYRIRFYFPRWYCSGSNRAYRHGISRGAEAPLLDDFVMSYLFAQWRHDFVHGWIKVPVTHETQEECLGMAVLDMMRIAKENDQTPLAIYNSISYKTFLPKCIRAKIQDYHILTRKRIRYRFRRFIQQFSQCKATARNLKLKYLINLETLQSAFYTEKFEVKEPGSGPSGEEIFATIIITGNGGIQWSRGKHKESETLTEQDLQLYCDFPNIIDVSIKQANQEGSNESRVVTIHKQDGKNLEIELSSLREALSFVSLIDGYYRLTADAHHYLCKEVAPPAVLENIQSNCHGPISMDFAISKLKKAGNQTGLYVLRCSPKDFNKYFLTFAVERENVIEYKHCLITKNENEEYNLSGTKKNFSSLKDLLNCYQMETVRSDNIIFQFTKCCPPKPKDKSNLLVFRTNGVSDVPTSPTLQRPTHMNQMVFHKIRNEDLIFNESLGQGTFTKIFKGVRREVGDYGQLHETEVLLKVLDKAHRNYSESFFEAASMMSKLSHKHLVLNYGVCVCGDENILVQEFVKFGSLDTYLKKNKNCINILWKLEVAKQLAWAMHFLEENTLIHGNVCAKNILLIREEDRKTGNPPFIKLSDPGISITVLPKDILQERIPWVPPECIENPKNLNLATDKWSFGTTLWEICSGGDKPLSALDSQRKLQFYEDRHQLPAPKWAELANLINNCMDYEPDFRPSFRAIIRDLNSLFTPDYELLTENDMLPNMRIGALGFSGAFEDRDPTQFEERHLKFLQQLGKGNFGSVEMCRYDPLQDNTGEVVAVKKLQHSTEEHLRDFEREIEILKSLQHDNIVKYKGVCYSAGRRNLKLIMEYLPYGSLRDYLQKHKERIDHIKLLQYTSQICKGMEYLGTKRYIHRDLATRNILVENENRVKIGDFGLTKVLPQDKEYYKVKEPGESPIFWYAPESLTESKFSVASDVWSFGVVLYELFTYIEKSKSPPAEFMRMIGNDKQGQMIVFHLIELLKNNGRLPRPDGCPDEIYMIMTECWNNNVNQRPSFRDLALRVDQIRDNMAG

One series has as its target T1, JAK2 (Homo sapiens, UniProt O60674).
T1 construct: purchased BPS Bioscience
As to the kind of experiment: JAK2 activity assay (JAK2 assay kit, BPS Bioscience; Kinase Glo Max luminescence). Format: biochemical. The note with it: 95% confidence limits in brackets; triplicates; read-out: IC50 in the enzymatic assay for JAK2 inhibition. The protocol: According to the manufacturer’s instructions, the assay was performed in a white 96-well plate, in a total volume of 50 μL, adding a 5× kinase assay buffer, ATP (500 μM), protein tyrosine kinase substrate (10 mg/mL), water, tested molecules diluted in 0.1% DMSO solution, and JAK2 enzyme (2.5 ng/μL).
After 15 min of incubation at room temperature, the luminescence was measured by EnSpire Multimode Plate Reader (Perkin Elmer). All measurements were performed in triplicates for each compound, and the concentration range tested was 0.1–10 000 nM.
A word on the IC50: it is the concentration at which inhibition is half-maximal. Take `NS(=O)(=O)c1ccc(NC(=O)Cn2cnc3scc(-c4ccco4)c3c2=O)cc1` [Compound 7]: the IC50 stood at 637 nM.
For the compound `O=C1C2C3C=CC(CO)(O3)C2C(=O)N1c1cccc([N+](=O)[O-])c1` (stereo not shown) [Compound 4], the IC50 is 807 nM.
The same measure, in the same setting: in the case of `Cc1n[nH]c(C)c1C(=O)CC1(O)C(=O)N(Cc2ccccc2)c2ccccc21` (stereo not shown) [Compound 5] it was above 10000 nM; in that of `COc1cccc(C2C(C#N)=C(N)Oc3[nH]nc(C)c32)c1` (stereo not shown) [Compound 3], above 10000 nM; in that of `O=C(O)CSc1nnc2n1CCCN2` [Compound 6], above 10000 nM.
Same read-out and setting: in the case of `CC(=O)c1oc2ccccc2c1N` [Compound 1] it was above 10000 nM; in that of `COC(=O)C1=C(C)NC(C)=C(C(=O)OCCN2CCN(C(=O)c3ccco3)CC2)C1c1cccc([N+](=O)[O-])c1` (stereo not shown) [Compound 8], above 10000 nM.

The same series, now with this note: as quoted in abstract and conclusions; read-out: IC50 against JAK2.
`NS(=O)(=O)c1ccc(NC(=O)Cn2cnc3scc(-c4ccco4)c3c2=O)cc1` [Compound 7]: the IC50 was 640 nM.
Regarding `O=C1C2C3C=CC(CO)(O3)C2C(=O)N1c1cccc([N+](=O)[O-])c1` (stereo not shown) [Compound 4], the IC50 stood at 810 nM.

The target of another series is T1, JAK2.
Assay: not given
Details: method as in earlier work. The note with it: Figure 13; read-out: IC50 of commercially available JAK2 inhibitors; cited from earlier work.
Regarding `C[C@H](NC(=O)/C(C#N)=C/c1cccc(Br)n1)c1ccccc1` [WP1066], the IC50 was 2300 nM.
Consider `CC(=O)Nc1cc(Oc2ccc3c(nc(Nc4ccc(F)cc4F)n3C)c2C)ccn1` [CHZ868], for which the IC50 was 170 nM.
For the compound `CC(CCc1ccccn1)(CCc1ccccn1)C(=O)c1ccccc1` [NSC 42834], the IC50 was 15000 nM.
With `CCCC1(CCC)CCC2(CCN(CCCN(CC)CC)C2)CC1` [Atiprimod dihydrochloride], the IC50 was 400 nM.

The next series has as its system SH-SY5Y cells. Nature of the series: MTT cell viability assay. Type of series: cell-based, Human. The note with it: 100 μM, after 5 or 24 h, vs vehicle control. As for the experimental part:
Human SH-SY5Y neuroblastoma cells purchased from ICLC-IST (Genoa, Italy), were cultured in Dulbecco’s modified Eagle’s medium (DMEM), supplemented with 10% (v/v) fetal bovine serum (FBS), 100 units/mL penicillin, 100 μg/mL streptomycin, and 2 mM glutamine. Cells were incubated at 37 °C in a humidified atmosphere containing 5% CO2 and were allowed to reach 80% confluence before starting treatments. All reagents employed for cell culture were purchased from Lonza (Milan, Italy).
Drugs effects on cell viability were measured using the MTT [3-(4,5-dimethylthiazol-2-yl)-2,5-diphenyltetrazolium bromide] assay.[40] All reagents were purchased from Sigma-Aldrich (Milan, Italy) unless otherwise indicated. Briefly, cells were plated on 24-well plates at a density of 3 × 10^4 cells/well and were grown to reach 80% confluence. Cells were treated with vehicle (DMEM containing 0.1% dimethyl sulfoxide (DMSO)) or drugs dissolved in vehicle at the final concentrations of 1, 10, or 100 μM. After 5 or 24 h, the culture medium was removed and replaced with fresh DMEM containing the MTT solution (0.5 mg/mL) and cells were incubated in the dark for 3 h at 37 °C. […] The optical densities (ODs) were then recorded using a microplate spectrophotometer (GENios Tecan, Austria) at 590 nm. Results were expressed as a percentage of OD values of drug-treated cell cultures compared to vehicle-treated ones.
Background: Tetrazolium dyes change colour on reduction, which living cells bring about.
On to `O=C(O)CSc1nnc2n1CCCN2` [Compound 6], for which the “Cell viability (MTT)” value is recorded as “significant decrease”.
Regarding `COC(=O)C1=C(C)NC(C)=C(C(=O)OCCN2CCN(C(=O)c3ccco3)CC2)C1c1cccc([N+](=O)[O-])c1` (stereo not shown) [Compound 8], the “Cell viability (MTT)” value was “significant decrease”.

System in a further series: not listed separately
Nature of the series: Solubility for in vitro testing. Format: physicochemical. The note with it: reason for not testing in vitro.
For the compound `COCCNC(=O)c1cc2c(=O)n3cccc(C)c3nc2n(Cc2ccco2)c1=N` [Compound 2], the Solubility entry was “solubility problems”.
